Laboratory results from patent US10532066B2, “Surfactant lipids, compositions thereof, and uses thereof” (National Jewish Health, priority 2007, dated 2020).
Entries after “also recorded” stand apart in the source; their conditions may differ.

What was measured:
TLR3 = biological target: T1, TLR3 (Mus musculus, UniProt Q99MB1); assay: TLR agonist TNFα production in RAW 264.7 cells, TLR3; format: cell-based; conditions: poly IC, 24 h
T1 construct: endogenous in cells; host or cells: RAW 264.7
Method: (§1) In this experiment, multiple TLRs were stimulated with defined TLR agonists for 24 h and the TNFα production was measured. In each case, the maximal stimulation by agonist is set at 100% and the antagonism by POPG is expressed as the relative % response. The Controls consist of no treatment, or treatment with POPG in the absence of agonist as indicated. The agonists for the TLRs consist of Pam3Cys for TLR1/2, Mycoplasma pneumoniae membranes as an agonist for TLR2, mycoplasma derived MALP2 as an agonist for TLR 2/6, double stranded RNA (poly IC) for TLR3, Gram-negative lipopolysaccharide for TLR4, and CpG rich DNA as an agonist for TLR9. The TLR4 panel also contains the antagonist polymyxin B (PB) for comparison with POPG.

multiple TLRs = assay: Activation of RAW 264.7 macrophages by multiple TLRs (TNFα, Example 8); format: cell-based; conditions: 200 ug/ml POPG, 5 hours
TLR4 [1] = assay: TLR agonist TNFα production in RAW 264.7 cells, TLR4; format: cell-based; conditions: lipopolysaccharide, 24 h
Method: as §1

[2] = system: Respiratory Syncytial Virus (RSV); assay: RSV replication in NHBE cells (anti-RSV antibody staining); format: cell-based; conditions: multiplicity 3, 72 h, POPG 200 ug/ml
Method: Monolayers of BEAS2B and NHBE cells were infected with RSV at a multiplicity of 3 for 72 h. Infections were performed on cells in either the absence or the presence of POPG (200 ug/ml). The cell monolayers were fixed and stained with goat anti-human RSV antibody conjugated with horseradish peroxidase. The presence of the antibody was detected with diaminobenzamidine. Controls consisted of cell layers not exposed to the virus or exposed to POPG in the absence of virus as indicated.

TLR2 [3] = biological target: T2, TLR2 (Mus musculus, UniProt Q9QUN7); assay: TLR agonist TNFα production in RAW 264.7 cells, TLR2; format: cell-based; conditions: Mycoplasma pneumoniae membranes, 24 h
T2 construct: endogenous in cells; host or cells: RAW 264.7
Method: as §1

TLR1 [4] = biological target: T3, TLR1 (Homo sapiens, UniProt Q15399); assay: TLR agonist IL-8 production in primary human neutrophils, TLR1; format: cell-based; set-up: endogenous in cells; host or cells: primary human neutrophils; conditions: Pam3Cys, 5-24 h
T3 sequence (Q15399 25-786): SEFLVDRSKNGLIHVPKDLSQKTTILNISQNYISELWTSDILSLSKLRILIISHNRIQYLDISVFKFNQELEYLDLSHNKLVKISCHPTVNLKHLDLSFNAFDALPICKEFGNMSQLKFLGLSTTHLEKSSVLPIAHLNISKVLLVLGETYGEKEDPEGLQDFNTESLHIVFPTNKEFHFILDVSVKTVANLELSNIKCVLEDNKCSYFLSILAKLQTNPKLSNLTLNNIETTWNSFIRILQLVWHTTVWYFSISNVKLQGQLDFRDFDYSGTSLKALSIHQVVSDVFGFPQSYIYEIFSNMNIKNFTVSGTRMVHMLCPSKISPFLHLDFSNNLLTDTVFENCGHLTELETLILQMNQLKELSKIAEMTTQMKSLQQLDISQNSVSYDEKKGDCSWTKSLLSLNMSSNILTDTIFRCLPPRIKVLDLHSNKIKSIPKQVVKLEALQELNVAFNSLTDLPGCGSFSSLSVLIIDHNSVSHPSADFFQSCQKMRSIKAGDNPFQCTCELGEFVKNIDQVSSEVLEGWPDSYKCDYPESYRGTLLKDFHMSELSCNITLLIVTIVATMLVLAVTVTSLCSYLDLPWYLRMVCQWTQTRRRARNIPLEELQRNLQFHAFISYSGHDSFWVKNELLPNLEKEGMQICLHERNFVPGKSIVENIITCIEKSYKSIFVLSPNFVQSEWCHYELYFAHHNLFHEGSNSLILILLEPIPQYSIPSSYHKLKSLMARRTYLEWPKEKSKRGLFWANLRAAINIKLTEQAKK
Method: (§2) In this experiment, multiple TLRs were stimulated with defined TLR agonists for 5-24 h as indicated, and the IL-8 production was measured. In each case the maximal stimulation by agonist is set at 100% and the antagonism by POPG is expressed as the relative % response. The Controls consist of no treatment, or treatment with POPG, in the absence of agonist as indicated. The agonists for the TLRs consist of Pam3Cys for TLR1/2, double stranded RNA (poly IC) for TLR3, Gram-negative lipopolysaccharide (LPS) for TLR4, and single stranded RNA (polyU) for TLR7/8.

TLR2 [5] = biological target: TLR2 (Homo sapiens, UniProt O60603); assay: TLR agonist IL-8 production in primary human neutrophils, TLR2; format: cell-based; set-up: endogenous in cells; host or cells: primary human neutrophils; conditions: Pam3Cys, 5-24 h
Method: as §2

TLR1 [6] = biological target: T4, TLR1 (Mus musculus, UniProt Q9EPQ1); assay: TLR agonist TNFα production in RAW 264.7 cells, TLR1; format: cell-based; conditions: Pam3Cys, 24 h
T4 construct: endogenous in cells; host or cells: RAW 264.7
Method: as §1

RSV = RSV plaque progression in Hep2 monolayers, lipid in agar overlay; format: cell-based, Respiratory Syncytial Virus (RSV); conditions: lipid in agar overlay 5 hours after virus, POPG 200-500 ug/ml, POPC 500 ug/ml, 5 days
Method: Monolayers of Hep2 cells were subjected to RSV infection at levels that produce ca 100 plaques per well in quantitative plaque assays. The virus was incubated with the cells for 5 hours prior to agar overlay. The agar overlays contained either no additions, or POPG (200-500 ug/ml) or POPC (500 ug/ml).
The effects of POPG upon plaque formation as shown in Panel a of FIG. 39 were quantified in 3 independent experiments and are presented in this figure. The left panel of FIG. 40 provides the numbers of definite, and minute indefinite plaques formed in the absence and presence of POPG (200-500 ug/ml) as indicated. The right panel of FIG. 40 provides the numbers of definite plaques observed in the absence and presence of either POPG or POPC (200-500 ug/ml) as indicated.

TLR4 [7] = biological target: T5, TLR4 (Homo sapiens, UniProt O00206); assay: TLR agonist IL-8 production in primary human neutrophils, TLR4; format: cell-based; conditions: LPS, 5-24 h
T5 construct: multiple Toll-like receptors (TLRs) on primary human neutrophils; endogenous in cells; host or cells: primary human neutrophils
Method: as §2

TLR8 = assay: TLR agonist IL-8 production in primary human neutrophils, TLR8; format: cell-based; conditions: polyU, 5-24 h
Method: as §2

U937 macrophages = assay: TNFα in U937 macrophages stimulated with smooth LPS, with SP-A and PtdGro; format: cell-based; conditions: 100 ng/ml smooth LPS, 6 hours, SP-A 10 μg/ml, lipid 20 μg/ml
Method: U937 macrophages were stimulated with 100 ng/ml smooth LPS for 6 hours. The culture medium was harvested and assayed for the presence of TNFα by ELISA. Control cultures received no additions. SP-A was added as indicated at 10 μg/ml. Saturated-(16:0/16:0)-PtdGro was added at 20 μg/ml. Unsaturated-(18:1/18:1)-PtdGro was added at 20 μg/ml.

T2 sequence (Q9QUN7 25-784): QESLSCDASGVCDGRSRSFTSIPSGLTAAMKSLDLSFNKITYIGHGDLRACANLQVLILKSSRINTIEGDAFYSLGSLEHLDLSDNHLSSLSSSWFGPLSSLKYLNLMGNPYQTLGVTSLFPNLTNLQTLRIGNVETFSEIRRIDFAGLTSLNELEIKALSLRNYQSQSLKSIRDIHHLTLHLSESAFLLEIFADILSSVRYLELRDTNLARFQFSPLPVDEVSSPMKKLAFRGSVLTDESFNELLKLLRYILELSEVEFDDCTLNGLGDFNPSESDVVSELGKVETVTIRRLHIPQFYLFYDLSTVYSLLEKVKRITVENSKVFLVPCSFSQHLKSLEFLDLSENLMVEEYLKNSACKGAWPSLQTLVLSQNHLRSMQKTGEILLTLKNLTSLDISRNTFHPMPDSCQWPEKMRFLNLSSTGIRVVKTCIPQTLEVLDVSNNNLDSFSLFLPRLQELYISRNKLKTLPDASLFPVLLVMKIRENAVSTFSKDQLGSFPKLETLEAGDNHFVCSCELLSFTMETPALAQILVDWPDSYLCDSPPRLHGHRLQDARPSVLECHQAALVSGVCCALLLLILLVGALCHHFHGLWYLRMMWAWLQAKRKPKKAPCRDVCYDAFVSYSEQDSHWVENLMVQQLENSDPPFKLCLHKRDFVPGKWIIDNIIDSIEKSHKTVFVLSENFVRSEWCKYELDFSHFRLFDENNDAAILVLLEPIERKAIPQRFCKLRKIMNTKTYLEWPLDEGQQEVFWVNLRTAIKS
T5 sequence (O00206 24-839): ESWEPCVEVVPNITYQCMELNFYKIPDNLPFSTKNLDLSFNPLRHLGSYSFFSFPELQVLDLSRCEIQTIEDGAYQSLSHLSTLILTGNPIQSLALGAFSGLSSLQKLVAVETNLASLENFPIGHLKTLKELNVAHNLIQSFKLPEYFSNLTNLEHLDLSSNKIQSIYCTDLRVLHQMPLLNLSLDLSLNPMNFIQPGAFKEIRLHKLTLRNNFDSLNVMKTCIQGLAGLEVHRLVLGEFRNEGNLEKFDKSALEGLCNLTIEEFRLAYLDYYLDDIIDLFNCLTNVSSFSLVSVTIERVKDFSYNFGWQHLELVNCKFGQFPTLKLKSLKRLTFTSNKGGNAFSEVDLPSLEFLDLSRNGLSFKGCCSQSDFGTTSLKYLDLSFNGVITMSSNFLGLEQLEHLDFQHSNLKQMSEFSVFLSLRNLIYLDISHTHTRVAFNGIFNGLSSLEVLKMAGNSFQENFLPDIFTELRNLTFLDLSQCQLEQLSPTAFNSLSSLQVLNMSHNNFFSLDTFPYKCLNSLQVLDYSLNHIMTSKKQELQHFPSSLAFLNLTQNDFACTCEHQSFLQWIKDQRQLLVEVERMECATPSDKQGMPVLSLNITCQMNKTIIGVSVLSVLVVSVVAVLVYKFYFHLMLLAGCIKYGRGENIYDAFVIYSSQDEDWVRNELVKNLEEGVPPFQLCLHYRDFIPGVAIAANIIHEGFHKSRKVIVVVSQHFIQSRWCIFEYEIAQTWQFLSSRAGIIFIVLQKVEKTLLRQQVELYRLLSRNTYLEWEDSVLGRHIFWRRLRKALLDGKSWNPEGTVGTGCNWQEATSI
T5 sequence (Q9Y6Y9 19-160 partner): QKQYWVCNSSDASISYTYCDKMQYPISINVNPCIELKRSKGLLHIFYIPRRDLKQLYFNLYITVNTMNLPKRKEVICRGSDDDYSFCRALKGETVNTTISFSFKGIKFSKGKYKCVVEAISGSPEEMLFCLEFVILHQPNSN
T4 sequence (Q9EPQ1 26-795): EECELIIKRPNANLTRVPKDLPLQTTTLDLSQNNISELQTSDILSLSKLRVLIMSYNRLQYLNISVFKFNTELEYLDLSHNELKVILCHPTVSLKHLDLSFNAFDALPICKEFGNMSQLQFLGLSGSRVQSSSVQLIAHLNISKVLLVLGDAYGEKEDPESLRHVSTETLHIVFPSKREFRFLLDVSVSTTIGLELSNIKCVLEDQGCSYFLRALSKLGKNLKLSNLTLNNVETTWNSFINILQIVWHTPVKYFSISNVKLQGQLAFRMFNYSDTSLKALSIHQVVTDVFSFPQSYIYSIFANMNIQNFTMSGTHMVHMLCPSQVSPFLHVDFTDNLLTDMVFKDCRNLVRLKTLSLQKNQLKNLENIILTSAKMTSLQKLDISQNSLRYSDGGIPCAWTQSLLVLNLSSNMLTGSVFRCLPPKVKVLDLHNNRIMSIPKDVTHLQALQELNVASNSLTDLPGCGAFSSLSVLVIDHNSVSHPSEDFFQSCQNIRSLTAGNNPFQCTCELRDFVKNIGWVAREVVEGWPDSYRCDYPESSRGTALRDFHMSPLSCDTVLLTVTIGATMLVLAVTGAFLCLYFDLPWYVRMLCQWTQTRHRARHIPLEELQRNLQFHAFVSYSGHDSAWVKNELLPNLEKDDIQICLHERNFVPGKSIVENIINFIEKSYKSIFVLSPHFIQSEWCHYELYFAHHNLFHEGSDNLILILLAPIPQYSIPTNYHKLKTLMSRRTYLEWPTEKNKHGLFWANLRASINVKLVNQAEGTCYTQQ
T1 sequence (Q99MB1 26-905): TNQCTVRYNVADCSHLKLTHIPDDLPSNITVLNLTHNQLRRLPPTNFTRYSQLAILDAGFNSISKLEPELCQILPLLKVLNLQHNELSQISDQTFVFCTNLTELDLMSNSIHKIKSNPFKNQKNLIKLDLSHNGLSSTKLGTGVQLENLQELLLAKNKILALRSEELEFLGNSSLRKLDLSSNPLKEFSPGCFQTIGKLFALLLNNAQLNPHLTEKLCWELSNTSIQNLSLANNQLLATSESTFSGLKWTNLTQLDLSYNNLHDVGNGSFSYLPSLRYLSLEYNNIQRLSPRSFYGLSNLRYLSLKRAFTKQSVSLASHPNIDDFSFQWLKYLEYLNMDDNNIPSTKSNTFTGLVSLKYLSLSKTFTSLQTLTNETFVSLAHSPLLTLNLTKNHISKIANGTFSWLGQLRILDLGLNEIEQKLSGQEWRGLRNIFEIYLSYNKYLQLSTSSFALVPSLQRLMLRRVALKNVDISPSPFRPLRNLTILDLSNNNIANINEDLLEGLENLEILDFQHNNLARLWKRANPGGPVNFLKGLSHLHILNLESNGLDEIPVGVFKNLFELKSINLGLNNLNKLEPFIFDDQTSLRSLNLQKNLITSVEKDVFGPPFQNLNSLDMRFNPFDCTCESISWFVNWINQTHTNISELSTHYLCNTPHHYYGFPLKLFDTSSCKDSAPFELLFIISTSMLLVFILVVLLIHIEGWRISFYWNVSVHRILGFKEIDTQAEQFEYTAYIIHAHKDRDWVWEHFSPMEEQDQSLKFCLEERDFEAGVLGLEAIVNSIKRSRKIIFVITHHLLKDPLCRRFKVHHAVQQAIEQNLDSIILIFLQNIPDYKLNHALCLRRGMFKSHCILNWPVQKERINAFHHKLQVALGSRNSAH
Chain of TLR2 (Homo sapiens, UniProt O60603) (O60603 21-784): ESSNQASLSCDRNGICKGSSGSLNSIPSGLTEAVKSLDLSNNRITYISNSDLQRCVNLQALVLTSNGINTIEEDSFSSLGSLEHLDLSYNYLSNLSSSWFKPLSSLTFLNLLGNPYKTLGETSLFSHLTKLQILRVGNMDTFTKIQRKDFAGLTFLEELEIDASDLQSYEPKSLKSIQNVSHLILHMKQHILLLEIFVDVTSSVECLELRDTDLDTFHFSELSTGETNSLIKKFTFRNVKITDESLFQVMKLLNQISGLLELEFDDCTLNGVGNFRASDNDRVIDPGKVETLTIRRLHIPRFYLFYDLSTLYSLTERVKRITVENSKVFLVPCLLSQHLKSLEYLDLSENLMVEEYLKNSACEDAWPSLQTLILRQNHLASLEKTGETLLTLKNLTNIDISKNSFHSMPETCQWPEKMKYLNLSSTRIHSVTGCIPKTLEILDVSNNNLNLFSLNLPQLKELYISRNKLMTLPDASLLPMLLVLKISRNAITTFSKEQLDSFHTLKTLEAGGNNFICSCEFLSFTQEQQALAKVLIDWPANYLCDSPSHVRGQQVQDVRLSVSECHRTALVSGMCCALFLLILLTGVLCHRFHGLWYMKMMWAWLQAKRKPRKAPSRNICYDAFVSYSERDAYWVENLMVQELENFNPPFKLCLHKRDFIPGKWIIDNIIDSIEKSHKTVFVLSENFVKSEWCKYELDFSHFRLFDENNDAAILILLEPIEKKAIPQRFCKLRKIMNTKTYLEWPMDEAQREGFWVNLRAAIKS

Compound	activity of TLR3 (TNFα production) (TLR3)	activation of RAW 264.7 macrophages by multiple TLRs (TNFα) (multiple TLRs)	activity of TLR4 (TNFα production) (TLR4 [1])	viral replication [2]	activity of TLR2 (TNFα production) (TLR2 [3])	activity of TLR1 (IL-8 production) (TLR1 [4])	activity of TLR2 (IL-8 production) (TLR2 [5])	activity of TLR1 (TNFα production) (TLR1 [6])	progression of RSV infection (plaques) (RSV)	activity of TLR4 (IL-8 production) (TLR4 [7])	activity of TLR8 (IL-8 production) (TLR8)	blocking of the anti-inflammatory effects of SP-A (TNFα) (U937 macrophages)
CCCCCCCC/C=C\CCCCCCCC(=O)O[C@H](COC(=O)CCCCCCCCCCCCCCC)COP(=O)(O)OCC(O)CO (stereo partly drawn) [POPG, palmitoyl-oleoyl-phosphatidylglycerol]	inhibits	inhibits activation	inhibits	prevents viral replication	inhibits	inhibits	inhibits	inhibits	arrests the progression; also recorded: indefinite minute plaques	inhibits	inhibits	–
CCCCCCCCCCCCCCCC(=O)OCC(COP(=O)(O)OCC(O)CO)OC(=O)CCCCCCCCCCCCCCC (stereo not drawn) [DPPG, dipalmitoyl-phosphatidylglycerol, reference compound]	–	–	–	–	–	–	–	–	–	–	–	does not block
